Measurements published in ChEMBL document CHEMBL3507680, “University of Dundee, Gates Library screen for HepG2 cell viability”.

Assay: Human HepG2 cell viability assay in 384 well format
Format: toxicity, cell-based
Design: dose 125 nL, time 70.5 hour; cytotoxicity at 70.5 h: concentration not given beside the values
Conditions: HepG2 cells, read-out: Inhibition

SMILES	cytotoxicity at 70.5 h [%]
Cc1ccc(NC2(C(=O)NCCCc3c(C)n[nH]c3C)CCCC2)cc1	-5.19
CCc1cnc2c(c1Nc1ccc(OC)cc1)c(=O)n(C)c(=O)n2C	21.4
CCC(c1nc(C(C)C)nn1-c1ccccn1)n1cccn1 (centres undefined)	17.2
CN1C[C@@H](F)[C@@H](OCc2nc3ccccc3[nH]2)C1	-5.45
Cc1nc(C2CCN(C(=O)CO)CC2)cc(N2CCOCC2)n1	-7.87
CC(=O)N1CCN(c2cnnc(N3CCCC3)c2)CC1	-1.26
Cc1nc(C)n(C2CCCN(C(=O)c3ccc(F)cc3F)C2)n1 (centres undefined)	-4.94
CCS(=O)(=O)N1C[C@@H]2CN(Cc3ccco3)CCO[C@@H]2C1	27.9
CC(C)c1csc(C2CCCN(C(=O)c3ncccn3)C2)n1 (centres undefined)	13
O=C1C[C@H]2CC[C@@H](CN1)N2C(=O)CCc1ccccc1	-8.36
CCOc1ncnc2c1CCN(S(=O)(=O)CC)CC2	14.3
Cc1cc(N2CCCCCC2)n2nc(C)c(C)c2n1	-4.52
CC(=O)N[C@@H]1CN(C(=O)c2cnccn2)C[C@H]1c1ccc(C)cc1	-11.4
CSCc1noc(CN2CCC3(CC2)CC(=O)N(CC=C(C)C)C3)n1	-11.8
CCc1ccc(C(=O)Nc2ccc(CC3CC(=O)NC3=O)cc2)s1 (centres undefined)	-4
CC(=O)c1sc2nc3c(c(C(F)(F)F)c2c1N)CN(C(C)=O)CC3	8.25
CN(C)CCn1ccnc1C1CCCN(C(=O)CCc2cccnc2)C1 (centres undefined)	-4.26
CC(=O)N1CCC2(CN(CC3CCCC3)C2)C1	-3.32
CCc1nnc2n1CCN(Cc1ncc(-c3ccccc3)o1)C2	-13.5
c1coc(CN2CCCn3c(CN4CCOCC4)nnc3C2)c1	1.6
COc1ccc(CC(=O)NC2CCc3nc(C)cn3C2)cc1 (centres undefined)	-7.41
Cc1ccc(CN2C[C@@H]3[C@@H](C(=O)N4CCCC4)CCS(=O)(=O)[C@@H]3C2)cc1	-1.09
Cc1nc(C)n(CC2CCCN2Cc2ncc(-c3ccccc3)o2)n1 (centres undefined)	-2.3

SMILES	cytotoxicity at 70.5 h [%]
CC1c2ccsc2CCN1Cc1cc2c(cc1O)OCO2 (centres undefined)	-5.73
CCOC(=O)CNC(=O)N1CCOC(CCc2ccccc2)C1 (centres undefined)	15.8
N#Cc1ccccc1OCCN1CCCC1Cn1cncn1 (centres undefined)	3.66
CC(C)COCCC(=O)Nc1cccnc1-n1cncn1	-6.91
CC(C)Cc1nc(OCC(=O)O)c(C#N)c2c1CCCC2	-7.68
c1cc(-c2ccc3c(c2)CCC32CCN(c3nncs3)CC2)co1	-9.51
O=S(=O)(N[C@@H]1CCO[C@]2(CCN(CC3CCOCC3)C2)C1)C1CC1	-8.9
CC(=O)N1CCS(=O)(=O)[C@@H]2CCN(S(=O)(=O)CC(C)C)CC[C@@H]21	-6.44
Cc1cnn(CCNCc2ccc(OCc3csc(C)n3)cc2)c1	-4.31
Cn1ncc2c1NC(=O)CC2c1c(Cl)cccc1Cl (centres undefined)	-16.4
O=C(c1ccc2c(c1)COC2)N1CCCC(n2cncn2)C1 (centres undefined)	-4.03
Cc1cnccc1CCNC(=O)Nc1cnc(N(C)C)nc1	25.9
COCC(=O)NCCc1ccc(I)s1	-8.78
CN(C)C(=O)N1CCc2c(CNc3ncccn3)cncc2C1	-2.83
CC1c2ncc(CNC(=O)C3CC3)n2CCN1Cc1ccccn1 (centres undefined)	0.0373
Cc1nn(C)c(N(C)C)c1CNCc1ccnn1C	-5.03
Cc1noc(-c2ccc(N3CCC[C@H]3CO)nc2)n1	-0.652
O=C(NCCc1ccccc1)N1CCCCC1C1OCCO1 (centres undefined)	-1.28
CCc1nnc2n1CCN(CC(=O)N(CC)C1=CCCCC1)C2	14.1
CC(C)Nc1ncnc2c1CCN(C(=O)NCc1cccnc1)CC2	-1.24
CC(C)n1nc(CN2CCOCC2)c2c1CN(C(=O)c1ccno1)C2	-4.42
CCc1nc2n(n1)CC(Nc1cc(C)nc3ncnn13)CC2 (centres undefined)	-5.27
O=C(NCCc1noc(C2CCCC2)n1)c1cn2ccsc2n1	-6.72

SMILES	cytotoxicity at 70.5 h [%]
Cc1c2c(C(F)F)cc(SCC(=O)O)nc2nn1C	-2.86
CCNc1cc2c(nn1)CCN(C(=O)c1nccnc1N)C2	-2.38
c1cnc2c(-c3nccn3C[C@@H]3CCCN4CCCC[C@H]34)cccc2c1	2.23
Cc1ccc(C(=O)NCc2ccnc(C3CCCOC3)n2)s1 (centres undefined)	10.5
O=C1N(CC2CC2)C2(CCSCC2)NC12CCCC2	30.4
CN(C)C(=O)NCc1ncn2c1CN(Cc1cccs1)CCC2	-3.13
OCCn1cc(CN2CCN(CCOc3ccccc3)CC2)cn1	-16
COc1cccc(CNc2cnn(CC(F)F)c2)c1	3.29
O=C(COCc1nc(-c2ccncc2)no1)NC1CCCCC1	-2.53
Cc1ccc(C)c(CN(C)Cc2nnc3ccccn23)c1	14.1
O=C(CO)N1CCCn2nnc(Cn3cccn3)c2C1	11.5
CCOC(=O)N1CCN(C(=O)c2cc(-c3ccc(Cl)cc3Cl)on2)CC1	0.435
Cc1cc(C(=O)N2CCCC2)ccc1NCC(=O)N1CCOCC1	-6.05
O=C(O)C1(n2ccnc2)CCN(Cc2cc3ccccc3o2)CC1	-5.42
Cn1cc(CN2CCC(c3cc(COc4cccc(Cl)c4)[nH]n3)C2)cn1 (centres undefined)	-0.141
O=C(C1CC1)N1C[C@H]2CCCN(S(=O)(=O)c3ccc4c(c3)CCC4)[C@H]2C1	3.41
COCCOC[C@]1(CNCc2cccc(OC)c2)C[C@@H](O)[C@@H](O)C1	0.877
COc1ccc(-c2nc(C)cc(SCC(N)=O)n2)cc1	-2.23
CCOC1CC2(CCN(Cc3cccn3C)CC2)C1	2.31
CSCc1noc(CNS(=O)(=O)c2cccc(C(=O)NC3CC3)c2)n1	-10.1
O=C(CC1CCCCC1)N1CCN(C(=O)NCc2ccccn2)CC1	-9.56
CCC(C)(CNC(=O)c1ccon1)NC(=O)c1ccon1 (centres undefined)	-8.49
CCC(=O)N1CCc2[nH]cnc2C12CCN(C(=O)CCS(C)(=O)=O)CC2	-1.4

SMILES	cytotoxicity at 70.5 h [%]
COCCN1C(=O)[C@H]2CC[C@@H]1CN(Cc1nnc(-c3ccccc3)o1)C2	-4.89
N#CC1CCN(C(=O)NCCc2ccc(Cl)s2)CC1	-3.5
CC(C)CC(=O)Nc1ccc(Oc2ccsc2C(=O)O)cc1	1.56
CCc1[nH]ncc1C(=O)N1CCCC(n2cc(C)cn2)C1 (centres undefined)	-5.59
N#Cc1cccc(NC2CC(=O)N(CCCc3ccccc3)C2)n1 (centres undefined)	-19.4
Cc1ccc(S(=O)(=O)N2CC[C@@H](O)C2)c(F)c1	-2.84
CCN(CCc1ccccc1)Cn1nc(C)c2c(C)onc2c1=O	-1.87
Cc1cc(Cl)c(C)c(S(=O)(=O)N2CCN(Cc3ccncc3)CC2)c1Cl	-25.9
Cc1nn(C)c(Cl)c1C1CCCN1C(=O)c1cc[nH]n1 (centres undefined)	-13
O=C(CN1CCNC1=O)NCc1ccc2sccc2c1	-9.13
Cc1ccc(CN2CCn3c(CNS(C)(=O)=O)nnc3C2)s1	22.6
O=S(=O)(C1CC1)N1CCO[C@H]2[C@H](OCC3CC3)CC[C@@H]21	16.9
O=C(NCC1CCCO1)c1cc(COc2ccccc2F)[nH]n1 (centres undefined)	-3.44
Cc1ncsc1C(=O)NCCNc1ncccn1	13.7
CCSc1ccccc1C(=O)NCCN1CCC(c2cccs2)CC1	4.38
CO[C@H]1CC[C@H]2[C@H]1OCCN2CCOCc1ccccc1	-11.7
O=C(c1c[nH]nn1)N1CCN(C(c2ccccc2)C(F)(F)F)CC1 (centres undefined)	-10.3
CCCn1cnnc1CN(C)C(=O)C1CCC(=O)N(C2CCCC2)C1 (centres undefined)	-3.21
Cc1ccc(C(=O)CCC(=O)N2CCC(c3nncn3C)CC2)cc1	-4.47
CCOC(C)C(=O)N1CCCN(Cc2csc(CC)n2)CC1 (centres undefined)	22.4
Cc1ccccc1C1(CN)CCOCC1	-6.58
c1cc(CNCc2ccc3c(c2)CCO3)cc(N2CCOCC2)n1	-9.64
Cc1nn(C)c(C)c1CC(=O)N1CCC(Nc2cccnn2)CC1	35.9

SMILES	cytotoxicity at 70.5 h [%]
Fc1cccc(OC2CCN(CCn3cc4ccccc4n3)CC2)c1	-21.6
CCN(CC)S(=O)(=O)CC(=O)Nc1ccsc1	-14.5
CC(C)C[C@H](N)C(=O)N1CC2(CCNCC2)c2cc(Cl)ccc21	3.38
CCC(O)Cn1nc(-c2ccc(C(=O)O)cc2)cc1-c1ccc(F)cc1 (centres undefined)	-5.44
CNC(=O)[C@@]12CCCN(c3ncccn3)[C@@H]1CN(c1ncc(F)cn1)C2	-0.144
Cc1ccc2c(cnn2CCC(=O)NCc2csc(C3CC3)n2)c1	22.8
Cc1nc(C)c(CCNC(Cc2ccncc2)C(F)(F)F)s1 (centres undefined)	2.53
Cc1cc(CN(C)C(=O)c2ccc(Cl)cc2N2CCCC2=O)no1	-12.5
N#Cc1ccccc1N1CCN(CCC(=O)N2CCOCC2)CC1	-3.68
O=C(C1SCCc2sccc21)N1CCN(CCO)CC1 (centres undefined)	-2.81
CCC(C(=O)NCC1CCN(c2cnn(C)c(=O)c2)CC1)n1cccn1 (centres undefined)	-7.23
COc1ccc2[nH]cc(C(=O)N3C[C@@H](O)[C@H](N4CCCC4)C3)c2c1	17.1
CCc1c(O)nc2nc(N3CCCC3)nn2c1C	-5.54
Cc1cccc(Cn2c3c(ccc2=O)CCN(Cc2ccoc2)CC3)n1	-9.52
Cc1cc(C)n(CC2CCCN2CC(=O)N(C)Cc2ccco2)n1 (centres undefined)	-8.36
CN(C)c1nccc(N(C)Cc2nc3ccccc3n2C)n1	10.9
CC(=O)N1CCc2c(nc(N(C)C)nc2NCCc2cccs2)C1	-5.76
Cc1cc(C(=O)N2CCNC(=O)C2)c(C)n1Cc1ccccn1	-5.56
CCc1nc(C)c(C(=O)NCC2COc3cc(OC)ccc3C2)o1 (centres undefined)	42.6
O=C(Nc1ccccc1-c1ccccc1)NC1CCC2(C1)OCCO2 (centres undefined)	27.5
CCCC(=O)NC1CCN(c2ccccc2S(=O)(=O)CC)CC1	17.6
Cc1cc(NC(=O)CN2CCc3cnc(C(C)C)nc3C2)on1	-1.61
